In the supplement of paper PMC4862054:

Legend:
Test in all cases: normalised response (% of control), CellTiter-Glo; higher = more viable cells (100 = DMSO, 0 = benzethonium chloride kill control)
Conditions in all cases: incubation time: 72 h
[1] = system: SK-BR-3
Method in brief: (§1)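 Two readouts were taken after 72 h: CellTox Green fluorescence (485/520 nm) first, then CellTiter-Glo luminescence after 10 min at room temperature. Breast cancer cell lines had been seeded as 20 µl suspension into 384-well plates holding compound at 5 concentrations in 10-fold steps across a compound-specific 10,000-fold range. Each value is a normalised signal at a single concentration, with plates scaled to 0.1 % DMSO (100) and a positive kill control (0).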

[2] = system: CAL-85-1
Method in brief: as §1

[3] = system: HDQ-P1
Method in brief: as §1

[4] = system: MDA-MB-231
Method in brief: as §1

[5] = system: CAL-51
Method in brief: as §1

[6] = system: HCC1937
Method in brief: as §1

[7] = system: Hs578T
Method in brief: as §1

[8] = system: HCC1599
Method in brief: as §1

[9] = system: BT-474
Method in brief: as §1

[10] = system: DU-4475
Method in brief: as §1

[11] = system: HCC1143
Method in brief: as §1

[12] = system: MCF-10A
Method in brief: as §1

[13] = system: CAL-120
Method in brief: as §1

[14] = system: BT-549
Method in brief: as §1

SMILES	normalised response [1]	normalised response [2]	normalised response [3]	normalised response [4]	normalised response [5]	normalised response [6]	normalised response [7]	normalised response [8]	normalised response [9]	normalised response [10]	normalised response [11]	normalised response [12]	normalised response [13]	normalised response [14]
OC[C@H]1O[C@@H](n2cnc3c2N=CNC[C@H]3O)C[C@@H]1O [Pentostatin] (1000 nM)	104%	100%	94.1%	108%	92.4%	100%	105%	103%	93.9%	98%	104%	105%	95.6%	95.7%
CN1CC[C@H](c2c(O)cc(O)c3c(=O)cc(-c4ccccc4Cl)oc23)[C@H](O)C1 [Alvocidib] (1000 nM)	2.44%	8.63%	19.8%	3.01%	9.5%	29.1%	10.1%	17.2%	20%	10.1%	17.1%	11.2%	35.2%	5.76%
CC[C@]1(O)C[C@@H]2CN(CCc3c([nH]c4ccccc34)[C@@](C(=O)OC)(c3cc4c(cc3OC)N(C)[C@H]3[C@@](O)(C(=O)OC)[C@H](OC(C)=O)[C@]5(CC)C=CCN6CC[C@]43[C@@H]65)C2)C1 [Vinblastine] (100 nM)	14.2%	37.2%	71.9%	40.1%	31.6%	67.7%	22.4%	26.6%	52.3%	61.9%	56.6%	72.4%	62.9%	35.6%
N#CC[C@H](C1CCCC1)n1cc(-c2ncnc3[nH]ccc23)cn1 [Ruxolitinib] (1000 nM)	90.2%	95.8%	98.2%	104%	121%	103%	105%	100%	90.2%	99.6%	92.9%	80.6%	89.4%	96.3%
Nc1nc(Cl)nc2c1ncn2[C@H]1C[C@H](O)[C@@H](CO)O1 [Cladribine] (100 nM)	111%	104%	97.5%	93.3%	90.1%	90.3%	100%	112%	97.1%	101%	100%	107%	94.5%	77.7%
Cc1c2oc3c(C)ccc(C(=O)N[C@@H]4C(=O)N[C@H](C(C)C)C(=O)N5CCC[C@H]5C(=O)N(C)CC(=O)N(C)[C@@H](C(C)C)C(=O)O[C@@H]4C)c3nc-2c(C(=O)N[C@@H]2C(=O)N[C@H](C(C)C)C(=O)N3CCC[C@H]3C(=O)N(C)CC(=O)N(C)[C@@H](C(C)C)C(=O)O[C@@H]2C)c(N)c1=O [Dactinomycin] (100 nM)	11.3%	6.91%	21.8%	2.57%	2.69%	18.9%	7.79%	8.92%	6.79%	0.24%	8.6%	5.33%	19.8%	6.05%
COc1cccc2cc(-c3nc([C@H]4CC[C@H](C(=O)O)CC4)n4ncnc(N)c34)[nH]c12 [OSI-027] (1000 nM)	48.2%	76.2%	66.1%	85.5%	92.4%	81.2%	96.6%	118%	79.6%	89.3%	90.8%	87%	77.3%	74.6%
C=CC[C@@H]1/C=C(\C)C[C@H](C)C[C@H](OC)[C@H]2O[C@@](O)(C(=O)C(=O)N3CCCC[C@H]3C(=O)O[C@H](/C(C)=C/[C@@H]3CC[C@@H](O)[C@H](OC)C3)[C@H](C)[C@@H](O)CC1=O)[C@H](C)C[C@@H]2OC [Tacrolimus] (1000 nM)	88.5%	95.1%	105%	106%	109%	101%	96%	121%	97.4%	100%	98.4%	102%	101%	102%
Clc1ccc(C(c2ccccc2Cl)C(Cl)Cl)cc1 (stereo not drawn) [Mitotane] (1000 nM)	94.2%	101%	101%	101%	98.3%	99.6%	104%	121%	92%	95.3%	94.1%	91.7%	97.7%	100%
Nc1ccn([C@@H]2O[C@H](CO)[C@@H](O)[C@@H]2O)c(=O)n1 [Cytarabine] (1000 nM)	46.7%	94.5%	92%	86.8%	39.7%	85.2%	81.6%	93.4%	90.6%	77.8%	80.6%	104%	88%	61.9%
Cc1ccc(F)c(NC(=O)Nc2ccc(-c3cccc4[nH]nc(N)c34)cc2)c1 [Linifanib] (100 nM)	112%	100%	103%	111%	75.2%	102%	98%	104%	106%	98.7%	105%	105%	114%	103%
S=c1[nH]cnc2nc[nH]c12 [Mercaptopurine] (1000 nM)	95.2%	92.6%	47.7%	66.6%	108%	59.4%	71.8%	80.5%	75.6%	79.7%	95.3%	94.2%	88.8%	103%
